What was measured:
Experiment in all cases: KINOMEscan competition binding
Details in all cases: compound 10.0 µM
SIK3 (human) = SIK3 (human) (UniProt Q9Y2K2)
HIPK4 (human) = HIPK4 (human) (UniProt Q8NE63)
AAK1 (human) = AAK1 (human) (UniProt Q2M2I8)
ADCK3 (human) = ADCK3 (human) (UniProt Q8NI60)
NEK3 (human) = NEK3 (human) (UniProt P51956)
NUAK2 (human) = NUAK2 (human) (UniProt Q9H093)
MAPK9 (human) = MAPK9 (human) (UniProt P45984)
PRKG1 (human) = PRKG1 (human) (UniProt Q13976)
PAK7 (human) = PAK7 (human) (UniProt Q9P286)
[1] = system: EGFR (human), P00533 [752-759 del]
RET (human) = RET (human) (UniProt P07949)
MAST1 (human) = MAST1 (human) (UniProt Q9Y2H9)
CDK18 (human) = CDK18 (human) (UniProt Q07002)
CDK11B (human) = CDK11B (human) (UniProt P21127)
STK33 (human) = STK33 (human) (UniProt Q9BYT3)
RPS6KA5 KD1 (human) = RPS6KA5 KD1 (human) (UniProt O75582)
DCLK1 (human) = DCLK1 (human) (UniProt O15075)
PRKD1 (human) = PRKD1 (human) (UniProt Q15139)
TSSK1B (human) = TSSK1B (human) (UniProt Q9BXA7)
[2] = system: RET (human), P07949 [M918T]
MAP2K2 (human) = MAP2K2 (human) (UniProt P36507)
EPHA3 (human) = EPHA3 (human) (UniProt P29320)
RPS6KA2 KD1 (human) = RPS6KA2 KD1 (human) (UniProt Q15349)
LYN (human) = LYN (human) (UniProt P07948)
MAPK6 (human) = MAPK6 (human) (UniProt Q16659)
NEK6 (human) = NEK6 (human) (UniProt Q9HC98)
PRKCI (human) = PRKCI (human) (UniProt P41743)
STK39 (human) = STK39 (human) (UniProt Q9UEW8)
SYK (human) = SYK (human) (UniProt P43405)
INSR (human) = INSR (human) (UniProt P06213)
ERBB2 (human) = ERBB2 (human) (UniProt P04626)
CDK8 (human) = CDK8 (human) (UniProt P49336)
CDK4 CCND1 (human) = CDK4 CCND1 (human) (UniProt P11802+P24385)
CDKL2 (human) = CDKL2 (human) (UniProt Q92772)
CDK17 (human) = CDK17 (human) (UniProt Q00537)
[3] = system: EGFR (human), P00533 [747-751 del / S ins]
SRC (human) = SRC (human) (UniProt P12931)
MAPK1 (human) = MAPK1 (human) (UniProt P28482)
ERBB4 (human) = ERBB4 (human) (UniProt Q15303)
PLK1 (human) = PLK1 (human) (UniProt P53350)

Sequence of NEK3 (human) (P51956 whole entry, looked up): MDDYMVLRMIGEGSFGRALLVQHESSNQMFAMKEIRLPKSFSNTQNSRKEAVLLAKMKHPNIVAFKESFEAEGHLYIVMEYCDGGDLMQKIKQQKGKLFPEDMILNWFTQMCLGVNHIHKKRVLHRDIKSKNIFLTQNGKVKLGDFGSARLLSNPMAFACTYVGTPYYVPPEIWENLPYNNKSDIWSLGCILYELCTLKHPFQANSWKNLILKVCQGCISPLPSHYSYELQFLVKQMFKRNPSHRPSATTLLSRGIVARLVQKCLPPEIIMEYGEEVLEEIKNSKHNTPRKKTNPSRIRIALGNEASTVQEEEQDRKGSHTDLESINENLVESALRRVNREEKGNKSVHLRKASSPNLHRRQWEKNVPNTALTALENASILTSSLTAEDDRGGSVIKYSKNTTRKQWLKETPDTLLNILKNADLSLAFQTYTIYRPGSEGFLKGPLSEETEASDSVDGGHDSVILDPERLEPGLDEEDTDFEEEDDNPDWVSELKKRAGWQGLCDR
Sequence of RPS6KA2 KD1 (human) (Q15349 whole entry, looked up): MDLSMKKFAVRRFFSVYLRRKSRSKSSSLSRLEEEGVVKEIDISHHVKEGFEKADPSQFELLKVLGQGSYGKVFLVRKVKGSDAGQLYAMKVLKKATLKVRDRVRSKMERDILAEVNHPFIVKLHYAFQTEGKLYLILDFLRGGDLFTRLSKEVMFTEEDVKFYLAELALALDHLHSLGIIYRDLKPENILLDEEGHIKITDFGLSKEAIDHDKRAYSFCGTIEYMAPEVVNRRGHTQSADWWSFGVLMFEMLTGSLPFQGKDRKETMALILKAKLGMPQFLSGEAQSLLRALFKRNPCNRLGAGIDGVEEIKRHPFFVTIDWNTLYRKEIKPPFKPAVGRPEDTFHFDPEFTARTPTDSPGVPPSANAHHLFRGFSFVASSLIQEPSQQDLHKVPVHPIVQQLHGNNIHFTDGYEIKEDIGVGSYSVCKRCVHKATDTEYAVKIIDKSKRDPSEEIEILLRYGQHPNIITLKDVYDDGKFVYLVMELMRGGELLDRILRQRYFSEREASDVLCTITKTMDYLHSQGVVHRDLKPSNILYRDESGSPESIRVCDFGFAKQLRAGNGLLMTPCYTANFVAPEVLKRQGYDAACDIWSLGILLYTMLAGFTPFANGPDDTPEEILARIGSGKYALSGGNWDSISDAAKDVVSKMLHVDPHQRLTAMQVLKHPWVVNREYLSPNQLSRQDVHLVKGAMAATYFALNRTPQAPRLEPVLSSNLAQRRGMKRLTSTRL
Sequence of PRKG1 (human) (Q13976 whole entry, looked up): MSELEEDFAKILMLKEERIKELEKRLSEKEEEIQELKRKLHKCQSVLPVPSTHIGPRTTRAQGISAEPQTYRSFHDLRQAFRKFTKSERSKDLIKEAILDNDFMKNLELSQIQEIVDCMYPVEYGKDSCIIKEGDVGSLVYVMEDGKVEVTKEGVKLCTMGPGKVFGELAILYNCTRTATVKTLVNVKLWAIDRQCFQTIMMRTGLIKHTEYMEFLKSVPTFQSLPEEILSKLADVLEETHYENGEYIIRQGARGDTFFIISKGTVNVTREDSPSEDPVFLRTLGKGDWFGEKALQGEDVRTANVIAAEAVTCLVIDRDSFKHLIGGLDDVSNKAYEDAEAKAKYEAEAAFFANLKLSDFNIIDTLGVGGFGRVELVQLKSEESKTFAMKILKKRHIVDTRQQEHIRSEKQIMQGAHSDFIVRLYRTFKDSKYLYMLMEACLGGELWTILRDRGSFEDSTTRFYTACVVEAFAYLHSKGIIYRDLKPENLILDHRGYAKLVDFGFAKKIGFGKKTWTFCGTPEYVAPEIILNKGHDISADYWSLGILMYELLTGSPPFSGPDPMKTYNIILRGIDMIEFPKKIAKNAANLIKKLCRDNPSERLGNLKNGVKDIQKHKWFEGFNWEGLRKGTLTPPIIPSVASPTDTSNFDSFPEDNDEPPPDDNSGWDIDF
Sequence of CDK11B (human) (P21127 whole entry, looked up): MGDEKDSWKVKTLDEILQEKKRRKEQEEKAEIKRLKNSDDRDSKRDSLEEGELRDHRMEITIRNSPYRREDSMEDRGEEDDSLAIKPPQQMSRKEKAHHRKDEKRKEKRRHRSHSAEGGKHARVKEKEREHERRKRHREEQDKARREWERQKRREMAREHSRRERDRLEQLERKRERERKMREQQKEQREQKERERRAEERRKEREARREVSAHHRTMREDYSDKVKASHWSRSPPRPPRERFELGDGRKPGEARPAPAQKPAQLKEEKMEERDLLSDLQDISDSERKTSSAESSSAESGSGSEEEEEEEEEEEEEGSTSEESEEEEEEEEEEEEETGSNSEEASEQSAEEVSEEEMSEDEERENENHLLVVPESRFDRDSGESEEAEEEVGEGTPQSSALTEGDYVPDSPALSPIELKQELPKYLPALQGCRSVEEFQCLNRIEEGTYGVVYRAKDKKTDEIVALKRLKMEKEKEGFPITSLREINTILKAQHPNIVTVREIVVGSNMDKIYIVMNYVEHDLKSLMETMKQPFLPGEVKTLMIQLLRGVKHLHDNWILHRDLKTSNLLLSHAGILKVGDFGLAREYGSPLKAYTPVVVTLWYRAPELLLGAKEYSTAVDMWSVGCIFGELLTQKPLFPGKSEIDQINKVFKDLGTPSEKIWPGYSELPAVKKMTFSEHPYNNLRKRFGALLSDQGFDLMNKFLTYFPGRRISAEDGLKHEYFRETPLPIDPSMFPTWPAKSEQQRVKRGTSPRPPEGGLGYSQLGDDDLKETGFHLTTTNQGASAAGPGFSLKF
Sequence of MAST1 (human) (Q9Y2H9 whole entry, looked up): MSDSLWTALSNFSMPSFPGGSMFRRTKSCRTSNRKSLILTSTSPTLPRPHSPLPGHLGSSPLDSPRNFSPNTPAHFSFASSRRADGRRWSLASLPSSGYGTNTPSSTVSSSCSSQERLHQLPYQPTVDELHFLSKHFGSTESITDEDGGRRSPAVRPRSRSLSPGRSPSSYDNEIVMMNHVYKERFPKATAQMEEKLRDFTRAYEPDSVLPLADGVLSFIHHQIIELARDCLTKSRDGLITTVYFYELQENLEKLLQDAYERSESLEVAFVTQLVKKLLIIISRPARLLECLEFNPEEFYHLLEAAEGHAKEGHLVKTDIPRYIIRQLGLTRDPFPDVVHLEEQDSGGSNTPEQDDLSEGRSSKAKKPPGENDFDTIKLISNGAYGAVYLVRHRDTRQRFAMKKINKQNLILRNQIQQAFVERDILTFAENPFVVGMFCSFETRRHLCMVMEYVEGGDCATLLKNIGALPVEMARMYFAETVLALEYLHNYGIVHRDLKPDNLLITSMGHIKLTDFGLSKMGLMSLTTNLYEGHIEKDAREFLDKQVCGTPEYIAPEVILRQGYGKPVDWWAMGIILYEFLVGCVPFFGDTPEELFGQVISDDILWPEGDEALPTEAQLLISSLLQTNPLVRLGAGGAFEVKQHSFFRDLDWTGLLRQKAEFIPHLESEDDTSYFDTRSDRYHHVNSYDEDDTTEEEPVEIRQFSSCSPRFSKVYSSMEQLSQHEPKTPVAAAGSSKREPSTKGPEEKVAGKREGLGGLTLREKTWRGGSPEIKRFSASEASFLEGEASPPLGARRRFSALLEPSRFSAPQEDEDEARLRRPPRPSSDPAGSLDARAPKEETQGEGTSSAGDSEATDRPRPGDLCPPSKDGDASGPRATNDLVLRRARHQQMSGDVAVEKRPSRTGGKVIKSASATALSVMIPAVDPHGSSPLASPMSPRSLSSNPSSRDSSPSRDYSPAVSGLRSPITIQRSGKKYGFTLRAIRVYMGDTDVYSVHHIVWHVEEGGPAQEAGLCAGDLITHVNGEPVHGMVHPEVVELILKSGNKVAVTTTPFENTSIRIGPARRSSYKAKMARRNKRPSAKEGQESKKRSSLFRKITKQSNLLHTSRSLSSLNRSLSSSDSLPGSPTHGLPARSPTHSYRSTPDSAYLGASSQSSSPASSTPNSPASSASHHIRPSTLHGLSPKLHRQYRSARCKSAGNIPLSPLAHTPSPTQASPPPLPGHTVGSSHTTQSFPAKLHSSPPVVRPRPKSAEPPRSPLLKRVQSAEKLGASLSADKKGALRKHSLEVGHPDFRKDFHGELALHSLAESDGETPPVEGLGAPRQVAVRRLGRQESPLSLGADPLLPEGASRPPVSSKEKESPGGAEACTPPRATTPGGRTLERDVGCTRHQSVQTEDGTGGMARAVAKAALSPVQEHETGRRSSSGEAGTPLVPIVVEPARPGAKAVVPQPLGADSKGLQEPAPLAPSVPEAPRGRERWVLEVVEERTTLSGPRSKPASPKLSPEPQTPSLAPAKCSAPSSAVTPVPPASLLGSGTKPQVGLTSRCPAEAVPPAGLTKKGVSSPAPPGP
Sequence of PAK7 (human) (Q9P286 whole entry, looked up): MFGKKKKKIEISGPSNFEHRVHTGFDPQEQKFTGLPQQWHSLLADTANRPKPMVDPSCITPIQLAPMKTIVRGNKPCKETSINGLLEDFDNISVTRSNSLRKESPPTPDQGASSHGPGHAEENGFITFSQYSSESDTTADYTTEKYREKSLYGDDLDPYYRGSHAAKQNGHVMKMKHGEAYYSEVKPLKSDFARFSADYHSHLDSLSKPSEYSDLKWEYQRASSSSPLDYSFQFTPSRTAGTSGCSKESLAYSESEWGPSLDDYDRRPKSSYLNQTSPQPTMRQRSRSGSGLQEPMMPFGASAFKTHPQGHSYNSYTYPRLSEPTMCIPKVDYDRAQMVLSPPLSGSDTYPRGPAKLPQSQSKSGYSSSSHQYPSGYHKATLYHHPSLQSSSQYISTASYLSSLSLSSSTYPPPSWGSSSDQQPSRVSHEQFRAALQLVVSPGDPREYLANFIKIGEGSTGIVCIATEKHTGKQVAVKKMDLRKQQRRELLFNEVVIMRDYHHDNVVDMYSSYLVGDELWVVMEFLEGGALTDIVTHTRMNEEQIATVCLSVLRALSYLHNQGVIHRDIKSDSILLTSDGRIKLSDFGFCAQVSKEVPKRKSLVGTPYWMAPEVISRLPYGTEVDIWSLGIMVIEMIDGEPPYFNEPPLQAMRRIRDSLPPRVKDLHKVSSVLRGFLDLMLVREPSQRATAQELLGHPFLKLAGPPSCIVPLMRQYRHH

## O=C1NC(=O)/C(=C/c2ccc3nccc(-c4ccncc4)c3c2)S1
SIK3 (human)
  kinase still bound, per cent of control: 93%
HIPK4 (human)
  kinase still bound, per cent of control: 3.8%
AAK1 (human)
  kinase still bound, per cent of control: 1%
ADCK3 (human)
  kinase still bound, per cent of control: 93%
NEK3 (human)
  kinase still bound, per cent of control: 77%
NUAK2 (human)
  kinase still bound, per cent of control: 36%
MAPK9 (human)
  kinase still bound, per cent of control: 39%
PRKG1 (human)
  kinase still bound, per cent of control: 75%
PAK7 (human)
  kinase still bound, per cent of control: 91%
[1]
  kinase still bound, per cent of control: 95%
RET (human)
  kinase still bound, per cent of control: 98%
MAST1 (human)
  kinase still bound, per cent of control: 83%
CDK18 (human)
  kinase still bound, per cent of control: 56%
CDK11B (human)
  kinase still bound, per cent of control: 95%
STK33 (human)
  kinase still bound, per cent of control: 0.55%
RPS6KA5 KD1 (human)
  kinase still bound, per cent of control: 100%
DCLK1 (human)
  kinase still bound, per cent of control: 77%
PRKD1 (human)
  kinase still bound, per cent of control: 89%
TSSK1B (human)
  kinase still bound, per cent of control: 2.2%
[2]
  kinase still bound, per cent of control: 93%
MAP2K2 (human)
  kinase still bound, per cent of control: 4.4%
EPHA3 (human)
  kinase still bound, per cent of control: 75%
RPS6KA2 KD1 (human)
  kinase still bound, per cent of control: 100%
LYN (human)
  kinase still bound, per cent of control: 92%
MAPK6 (human)
  kinase still bound, per cent of control: 100%
NEK6 (human)
  kinase still bound, per cent of control: 81%
PRKCI (human)
  kinase still bound, per cent of control: 67%
STK39 (human)
  kinase still bound, per cent of control: 71%
SYK (human)
  kinase still bound, per cent of control: 62%
INSR (human)
  kinase still bound, per cent of control: 77%
ERBB2 (human)
  kinase still bound, per cent of control: 66%
CDK8 (human)
  kinase still bound, per cent of control: 7.3%
CDK4 CCND1 (human)
  kinase still bound, per cent of control: 92%
CDKL2 (human)
  kinase still bound, per cent of control: 64%
CDK17 (human)
  kinase still bound, per cent of control: 59%
[3]
  kinase still bound, per cent of control: 84%
SRC (human)
  kinase still bound, per cent of control: 69%
MAPK1 (human)
  kinase still bound, per cent of control: 100%
ERBB4 (human)
  kinase still bound, per cent of control: 65%
PLK1 (human)
  kinase still bound, per cent of control: 26%

— the kinase profiling compilation of Christmann-Franck et al. (2016)
